One series deals with BChE from human serum (Homo sapiens, UniProt P06276). Conditions: screened at 10 μM; n.i. = no inhibition. On the procedure:
(§1) Herein, a number of newly and previously synthesized 3-benzazecine analogs, including either allene (Figure 1, scaffold A) or 6- and 8-ylidene (B and C) derivatives, were firstly assayed as inhibitors of AChE, BChE, and MAOs at 10 μM concentration.
(§2) Inhibition of human recombinant AChE (2770 U/mg) or BChE from human serum (50 U/mg) was determined as described using the Ellman spectrophotometric method in a 96-well plate procedure. Briefly, test compounds were incubated in phosphate buffer pH 8.0 in the presence of the enzyme and 5,5′-dithiobis-(2-nitrobenzoic acid) (DTNB) as the chromophoric reagent. Incubation samples were made in 96-well, flat-bottomed transparent polystyrene plates (Greiner Bio-One, Kremsmünster, Austria), at 25 °C for 20 min, and read at 412 nm using an Infinite M1000 Pro plate reader (Tecan, Cernusco s.N., Italy). For inhibition kinetics, four concentrations of compound 3e (ranging from 0 to 15 μM), and six concentrations of acetylthiocholine (from 33 to 200 μM) were used. Inhibition data and kinetics were obtained as means ± SD from 3 independent experiments, using GraphPad Prism (version 5.00 for Windows; GraphPad Software, San Diego, CA, USA).

For a further series, the target named is human recombinant AChE (Homo sapiens, UniProt P22303). Conditions: for IC50: read-out: hAChE half-maximal inhibitory concentration, mean ± SD of three independent measurements, unit from b17 (low μM range). On the procedure:
as §1, §2

For series [1], the target named is T1, human recombinant monoamine oxidase A (Homo sapiens, UniProt P21397).
T1 construct: purchased Sigma Aldrich; host or cells: baculovirus infected insect cells (microsomes)
T1 sequence (P21397 1-527): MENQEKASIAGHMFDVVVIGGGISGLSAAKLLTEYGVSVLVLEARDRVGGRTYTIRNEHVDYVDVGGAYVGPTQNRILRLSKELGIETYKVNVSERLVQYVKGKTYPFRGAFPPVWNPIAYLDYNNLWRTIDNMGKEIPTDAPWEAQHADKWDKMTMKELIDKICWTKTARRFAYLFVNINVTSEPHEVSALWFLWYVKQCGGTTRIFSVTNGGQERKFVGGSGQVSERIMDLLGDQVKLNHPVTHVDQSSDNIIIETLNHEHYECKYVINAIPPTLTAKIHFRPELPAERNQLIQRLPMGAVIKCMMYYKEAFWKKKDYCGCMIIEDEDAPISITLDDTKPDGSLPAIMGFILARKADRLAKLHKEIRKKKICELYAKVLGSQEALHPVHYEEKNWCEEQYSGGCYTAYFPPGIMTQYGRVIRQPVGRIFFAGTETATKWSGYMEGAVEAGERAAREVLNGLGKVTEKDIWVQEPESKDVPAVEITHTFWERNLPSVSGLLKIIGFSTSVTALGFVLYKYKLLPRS
Put plainly: Inhibition of MAO-A, kynuramine fluorescence assay. The class given is biochemical. The note with it: mean ± SD. On the procedure:
as §1
(§3) Inhibition of human recombinant monoamine oxidases A (250 U/mg) and B (59 U/mg; microsomes from baculovirus infected insect cells; Sigma Aldrich) was determined as already described, measuring the fluorescence of 4-hydroxyquinoline produced by MAOs in the oxidative deamination of substrate kynuramine. Briefly, compounds were tested in coincubation with MAO and kynuramine in phosphate buffer 390 mOsm pH 7.4, at 37 °C for 30 min. Assays were performed in 96-well black polystyrene plates (Greiner) using the Infinite M1000 Pro plate reader (Tecan). Inhibition data were obtained as means ± SD using GraphPad Prism.

For series [2], the target named is T2, human recombinant monoamine oxidase B (Homo sapiens, UniProt P27338).
T2 construct: purchased Sigma Aldrich; host or cells: baculovirus infected insect cells (microsomes)
T2 sequence (P27338 1-520): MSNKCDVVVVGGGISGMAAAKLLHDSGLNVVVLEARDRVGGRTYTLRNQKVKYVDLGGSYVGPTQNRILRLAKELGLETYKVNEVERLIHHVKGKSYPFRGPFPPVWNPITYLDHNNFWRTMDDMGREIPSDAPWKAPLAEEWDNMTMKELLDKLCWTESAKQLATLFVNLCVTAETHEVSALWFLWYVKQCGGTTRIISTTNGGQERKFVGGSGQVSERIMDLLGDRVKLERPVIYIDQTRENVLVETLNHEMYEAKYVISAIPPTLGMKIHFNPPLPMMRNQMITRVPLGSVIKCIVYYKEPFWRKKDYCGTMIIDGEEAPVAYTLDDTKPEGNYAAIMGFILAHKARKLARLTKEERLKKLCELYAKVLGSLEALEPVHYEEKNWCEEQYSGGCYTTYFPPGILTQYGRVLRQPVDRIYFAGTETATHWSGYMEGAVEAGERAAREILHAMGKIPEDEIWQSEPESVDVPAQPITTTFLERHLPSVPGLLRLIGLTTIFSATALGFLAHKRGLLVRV
Put plainly: Inhibition of MAO-B, kynuramine fluorescence assay. Conditions: mean ± SD. The class given is biochemical. As for the experimental part:
as §1, §3

Series [3] can be described thus: Kinetic aqueous solubility by U-HPLC. On the procedure: Following shaking of the suspension in an orbital shaker at 250 rpm for 2 h, the solution was separated by centrifugation (2500 rpm, 3 min) and filtered. Equal volume of solution was transferred into 1:1 (v/v) mixture of DMSO/PBS. The concentration of compound was determined by U-HPLC and UV detector (255 nm) comparing the peak area of external standard solution. All data were means of 3 independent experiments (± SEM). […] HPLC analyses were performed on an Agilent U-HPLC 1260 Infinity Quaternary LC system (Agilent Technologies, Milan, Italy) (Table 4).

The nature of series [4]: Hydrolytic stability in water-buffered solution by U-HPLC. Conditions: PBS pH 7.4, 0.15 M KCl, 37 °C (table footnote). As for the experimental part:
At appropriate time intervals, samples were withdrawn and analyzed by U-HPLC using a 1290 Infinity Quaternary LC system (Agilent Technologies, Milan, Italy) equipped with autosampler and photodiode array detector. A Phenomenex Kinetex C18 column 2.6 µm (150 × 2.1 mm i.d.) was used as stationary phase. […] Pseudo-first-order rate constants (kobs) for the hydrolysis of the compound were calculated from the slopes of the linear plots of log (% remaining compound) against time.

Values after ≈ are worked out from the molar mass of the structure shown. Values joined by “and” are separate entries in the source; they are usually repeats but may differ in a detail not shown here. Identical values can stand only once.

From PMC9571408, “Synthesis of Isomeric 3-Benzazecines Decorated with Endocyclic Allene Moiety and Exocyclic Conjugated Double Bond and Evaluation of Their Anticholinesterase Activity” (Molecules, 2022) come the findings set out here.

Sequence of BChE from human serum (P06276 29-602): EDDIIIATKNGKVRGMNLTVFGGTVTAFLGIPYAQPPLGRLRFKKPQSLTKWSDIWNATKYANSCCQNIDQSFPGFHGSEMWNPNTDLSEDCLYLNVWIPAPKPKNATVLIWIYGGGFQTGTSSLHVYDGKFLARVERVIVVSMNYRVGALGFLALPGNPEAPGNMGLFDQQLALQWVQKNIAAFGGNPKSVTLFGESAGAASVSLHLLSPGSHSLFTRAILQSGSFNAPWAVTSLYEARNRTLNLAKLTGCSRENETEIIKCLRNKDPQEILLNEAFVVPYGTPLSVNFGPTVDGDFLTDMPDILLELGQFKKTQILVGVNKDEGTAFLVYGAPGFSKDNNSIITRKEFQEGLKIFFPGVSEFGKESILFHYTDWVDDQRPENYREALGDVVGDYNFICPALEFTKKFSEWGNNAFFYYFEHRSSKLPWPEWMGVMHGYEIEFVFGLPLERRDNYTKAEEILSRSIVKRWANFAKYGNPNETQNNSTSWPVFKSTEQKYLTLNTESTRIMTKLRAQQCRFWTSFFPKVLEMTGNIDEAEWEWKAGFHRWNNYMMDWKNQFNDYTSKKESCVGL
Sequence of human recombinant AChE (P22303 32-614): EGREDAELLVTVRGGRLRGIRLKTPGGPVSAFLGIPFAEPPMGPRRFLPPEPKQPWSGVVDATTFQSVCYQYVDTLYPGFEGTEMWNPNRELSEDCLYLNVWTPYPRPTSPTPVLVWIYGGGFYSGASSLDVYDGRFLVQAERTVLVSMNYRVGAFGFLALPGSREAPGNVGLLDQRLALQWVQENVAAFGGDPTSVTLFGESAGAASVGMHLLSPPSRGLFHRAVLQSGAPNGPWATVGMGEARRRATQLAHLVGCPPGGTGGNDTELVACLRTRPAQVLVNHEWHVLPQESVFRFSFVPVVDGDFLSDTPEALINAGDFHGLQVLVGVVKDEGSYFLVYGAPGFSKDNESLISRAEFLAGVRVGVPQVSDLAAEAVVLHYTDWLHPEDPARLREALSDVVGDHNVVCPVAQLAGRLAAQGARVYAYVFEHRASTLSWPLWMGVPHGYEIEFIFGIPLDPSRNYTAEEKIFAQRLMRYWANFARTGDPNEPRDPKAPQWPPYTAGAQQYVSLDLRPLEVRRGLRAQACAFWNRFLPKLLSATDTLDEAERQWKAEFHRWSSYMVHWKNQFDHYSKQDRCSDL

For the compound `COCC1=C=C(c2ccc(C)cc2)c2cc(OC)c(OC)cc2CCN(C)C=C1C(=O)OC` [Compound 3d, Methyl 3-methyl-8-(4-methylphenyl)-10,11-dimethoxy-6-(methoxymethyl)-benzo[d]-3-aza-cyclodeca-4,6,7-triene-5-carboxylate], the hBChE inhibition entry at BChE from human serum was “n.i”. Besides, the IC50 at human recombinant AChE came to 19.3 ± 3.3 µM. Also, the “hMAO-A % inhibition at 10 μM” value in series [1] is on record as “(30 ± 4) %”. Also, in series [2], the “hMAO-B % inhibition at 10 μM” value was “(30 ± 5) %”.
For `COCC1=C=C(c2ccc(OC)cc2)c2cc(OC)c(OC)cc2CCN(C)C=C1C(C)=O` [Compound 3j, 1-(3-Methyl-10,11-dimethoxy-6-methoxymethyl-8-(4-methoxyphenyl)-benzo[d]-3-aza-cyclodeca-4,6,7-trien-5-yl)ethanone], in that order: “n.i”, 13.2 ± 0.7 µM, “(29 ± 5) %” and “(28 ± 5) %”.
For `COCC1=C=C(c2ccc(C)cc2)c2cc(OC)c(OC)cc2CCN(C)C=C1C(C)=O` [Compound 3i, 1-(3-Methyl-8-(4-methylphenyl)-10,11-dimethoxy-6-methoxymethyl-benzo[d]-3-aza-cyclodeca-4,6,7-trien-5-yl)ethanone], the hBChE inhibition result at BChE from human serum was “n.i”. For the same compound, the IC50 on human recombinant AChE amounted to 32.5 ± 4.4 µM. Further, in series [1], the “hMAO-A % inhibition at 10 μM” value is recorded as “(28 ± 1) %”. Moreover, in series [2], the “hMAO-B % inhibition at 10 μM” value is “(38 ± 4) %”.
Consider `COCC1=C=C(c2ccc(OC)cc2)c2cc(OC)c(OC)cc2CCN(C)C=C1C(=O)OC` [Compound 3e, Methyl 3-methyl-10,11-dimethoxy-6-methoxymethyl-8-(4-methoxyphenyl)-benzo[d]-3-aza-cyclodeca-4,6,7-triene-5-carboxylate], for which the hBChE inhibition entry at BChE from human serum is on record as “n.i”. Moreover, the Ki – broadly, the dissociation constant of the complex between target and ligand, obtained from inhibition or displacement – on human recombinant AChE (read-out: AChE inhibition, Ki, Lineweaver–Burk inhibition kinetics, acetylthiocholine substrate) was 4.9 µM and 4.89 µM. Further, the IC50 on human recombinant AChE was determined as 12.2 ± 2.6 µM. Further, in series [1], the “hMAO-A % inhibition at 10 μM” value was “(37 ± 5) %”. The “hMAO-B % inhibition at 10 μM” value in series [2] is given as “(23 ± 1) %”. The “Water solubility relative to 3n” value in series [3] (3e vs 3n, buffered aqueous solution pH 7.4) is 90 fold. In addition, in series [3] (PBS pH 7.4, 0.15 M KCl, 37 °C, kinetic solubility), the Solubility (usually the concentration that dissolves in the medium under given conditions) worked out at 17.4 ± 0.7 µM (≈ 8.1 µg/mL). Moreover, the Hydrolytic half-life in series [4] came to 4.5 h.
